Source: the Kinase Knowledgebase extract (Sharma et al. 2016)
pIC50: −log10 of the molar value.

molecular target: EGFR (human) (UniProt P00533); settings: bt474
Sequence (P00533 whole entry, looked up): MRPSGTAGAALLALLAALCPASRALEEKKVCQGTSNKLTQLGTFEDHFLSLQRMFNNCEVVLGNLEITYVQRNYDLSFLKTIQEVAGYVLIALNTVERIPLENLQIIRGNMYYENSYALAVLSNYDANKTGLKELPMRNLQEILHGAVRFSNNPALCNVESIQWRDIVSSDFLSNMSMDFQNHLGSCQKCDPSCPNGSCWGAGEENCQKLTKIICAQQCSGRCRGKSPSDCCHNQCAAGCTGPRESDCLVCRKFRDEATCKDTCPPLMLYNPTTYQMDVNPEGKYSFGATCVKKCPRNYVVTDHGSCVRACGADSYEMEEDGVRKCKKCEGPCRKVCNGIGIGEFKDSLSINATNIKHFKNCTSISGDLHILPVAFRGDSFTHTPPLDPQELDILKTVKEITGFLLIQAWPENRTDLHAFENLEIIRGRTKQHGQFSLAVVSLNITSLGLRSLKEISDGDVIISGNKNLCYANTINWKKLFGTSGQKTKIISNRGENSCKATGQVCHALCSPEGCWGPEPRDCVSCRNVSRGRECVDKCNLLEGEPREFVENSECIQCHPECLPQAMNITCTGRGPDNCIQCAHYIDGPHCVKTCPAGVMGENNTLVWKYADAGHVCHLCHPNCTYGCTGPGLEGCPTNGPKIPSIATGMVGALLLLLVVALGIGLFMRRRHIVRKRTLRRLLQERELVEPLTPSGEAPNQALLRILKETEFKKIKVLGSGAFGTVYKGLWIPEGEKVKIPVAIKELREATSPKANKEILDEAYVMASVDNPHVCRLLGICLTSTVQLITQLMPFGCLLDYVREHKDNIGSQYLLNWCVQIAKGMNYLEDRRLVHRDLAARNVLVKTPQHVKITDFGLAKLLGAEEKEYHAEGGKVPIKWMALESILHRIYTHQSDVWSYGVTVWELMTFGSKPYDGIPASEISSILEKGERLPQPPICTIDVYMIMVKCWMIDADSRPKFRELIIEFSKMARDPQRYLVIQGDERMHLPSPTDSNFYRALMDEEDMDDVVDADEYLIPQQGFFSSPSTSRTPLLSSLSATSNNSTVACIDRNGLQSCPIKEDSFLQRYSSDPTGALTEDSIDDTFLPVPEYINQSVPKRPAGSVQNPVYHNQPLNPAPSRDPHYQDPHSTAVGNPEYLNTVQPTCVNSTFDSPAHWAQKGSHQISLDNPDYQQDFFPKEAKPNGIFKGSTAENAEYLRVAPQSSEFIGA

SMILES | pIC50
CCOc1cc2ncnc(Nc3ccc(F)c(Cl)c3)c2cc1NC(=O)/C=C/CN1CC[C@@H]1COC | 8.70
O=C(/C=C/CN1CCC1CO)Nc1cc2c(Nc3ccc(F)c(Cl)c3)ncnc2cc1OC[C@H]1[C@@H]2COC[C@@H]21 (some centres undefined) | 7.97
COc1cc2ncnc(Nc3ccc(F)c(Cl)c3)c2cc1NC(=O)/C=C/CN1CCC1CO (centres undefined) | 8.64
COCCOc1cc2ncnc(Nc3ccc(F)c(Cl)c3)c2cc1NC(=O)/C=C/CN1CC[C@@H]1COC | 8.85
O=C(/C=C/CN1CCC1CO)Nc1cc2c(Nc3ccc(F)c(Cl)c3)ncnc2cc1OC[C@@H]1COCCO1 (some centres undefined) | 7.76
COCCOc1cc2ncnc(Nc3ccc(F)c(Cl)c3)c2cc1NC(=O)/C=C/CN1CC[C@H]1COC | 8.24
COC[C@@H]1CCN1C/C=C/C(=O)Nc1cc2c(Nc3ccc(F)c(Cl)c3)ncnc2cc1OC | 7.67
COC[C@@H]1CCN1C/C=C/C(=O)Nc1cc2c(Nc3ccc(F)c(Cl)c3)ncnc2cc1OCC1CC1 | 7.66
COC[C@H]1CCN1C/C=C/C(=O)Nc1cc2c(Nc3ccc(F)c(Cl)c3)ncnc2cc1OC | 8.80
COCC1CCN1C/C=C/C(=O)Nc1cc2c(Nc3ccc(F)c(Cl)c3)ncnc2cc1O[C@H]1CCOC1 (some centres undefined) | 8.54
O=C(/C=C/CN1CCC1CO)Nc1cc2c(Nc3ccc(F)c(Cl)c3)ncnc2cc1OCC1CC1 (centres undefined) | 8.02
O=C(/C=C/CN1CCC1CO)Nc1cc2c(Nc3ccc(F)c(Cl)c3)ncnc2cc1O[C@H]1CCOC1 (some centres undefined) | 8.41
O=C(/C=C/CN1CCC1CO)Nc1cc2c(Nc3ccc(F)c(Cl)c3)ncnc2cc1OC[C@H]1COCCO1 (some centres undefined) | 8.57
COC[C@H]1CCN1C/C=C/C(=O)Nc1cc2c(Nc3ccc(F)c(Cl)c3)ncnc2cc1OCC1CC1 | 8.18
